# Measurements: publication PMC7438487, “Structural studies reveal flexible roof of active site responsible for ω-transaminase CrmG overcoming by-product inhibition” (Communications Biology, 2020)
# Biological target: T1, CrmG (Actinoalloteichus sp. WH1-2216-6, UniProt H8Y6N2, W223A)
# T1 construct: pET28a, N-terminal His-tag and 14 additional vector residues; expressed in E. coli BL21; dimer (114 kDa by DLS)
# Assay: UV-vis conversion of PLP to PMP
# Format: biochemical
# Settings: 0.02 mM CrmG W223A, 0.2 mM PLP, 2 mM amino donor (L-Glu, L-Gln or L-Ala), 50 mM Tris pH 7.5, 30 °C
# T1 sequence (H8Y6N2 entry or part of it W223A): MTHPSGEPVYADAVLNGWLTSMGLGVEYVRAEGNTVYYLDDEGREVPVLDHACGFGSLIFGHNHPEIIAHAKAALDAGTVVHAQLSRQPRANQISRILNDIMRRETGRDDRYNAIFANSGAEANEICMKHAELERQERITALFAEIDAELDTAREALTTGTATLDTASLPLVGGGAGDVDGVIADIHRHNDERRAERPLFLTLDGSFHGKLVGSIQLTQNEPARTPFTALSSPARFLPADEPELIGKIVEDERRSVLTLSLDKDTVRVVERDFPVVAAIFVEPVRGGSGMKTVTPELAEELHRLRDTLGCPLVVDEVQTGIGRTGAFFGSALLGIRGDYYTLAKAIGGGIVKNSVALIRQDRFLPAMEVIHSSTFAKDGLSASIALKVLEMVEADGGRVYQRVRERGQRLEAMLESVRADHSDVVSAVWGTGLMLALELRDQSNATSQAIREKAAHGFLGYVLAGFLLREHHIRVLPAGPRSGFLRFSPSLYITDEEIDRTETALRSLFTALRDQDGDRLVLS
structure (smiles),measurement,value
Cc1ncc(COP(=O)(O)O)c(C=O)c1O [PLP],UV-vis conversion of PLP to PMP,CrmG catalyzing PLP conversion to PMP is greatly improved by the mutation W223A
